# Test results: patent US9951064B2, “Azaindazole compounds as inhibitors of T790M containing EGFR mutants” (Genentech, Inc., priority 2013, dated 2018)
# pEC50, pKi: −log10 of the molar value.
# Assays:
# [1] = target: T1, phosphor-EGFR in H1975(L585R/T790M) mutant EGFR expressing cells (Homo sapiens, UniProt P00533, L858R/T790M); assay: H1975 pEGFR MSD cellular assay; type: cell-based; conditions: NCI-H1975 cells, serum starved, 1 hour compound incubation, pEGFR Tyr1068 MSD; read-out: HI975 pEGFR EC50
# T1 construct: host or cells: NCI-H1975
# Method in brief: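 NCI-H1975 cells, 30,000/well, serum-starved overnight, then treated 1 hour at 37° C with serially diluted compounds in serum-free medium (0.5% DMSO). Lysates captured on anti-phospho-EGFR plates overnight at 4° C, detected with SULFO-TAG anti-total EGFR by electrochemiluminescence. Inhibition vs untreated controls; EC50 from 4-parameter logistic fit.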
# EGFR del746-750 T790M = target: T2, EGFR del746-750 T790M (Homo sapiens, UniProt P00533, DEL746-750/T790M); assay: EGFR del746-750 T790M biochemical assay (Caliper mobility shift); conditions: 5 μM ATP; apparent Ki (Morrison fit) converted by Cheng-Prusoff, Km of ATP 2.1 μM; read-out: EGFR(T790M/d746-750) Ki
# T2 construct: purchased Carna Biosciences 08-528
# Method: The exemplified compounds described herein were tested according to the assay below. The enzyme data reported in Tables 4-5 is generally a representative of multiple experiments.
# Reactions proceed for 30 minutes at room temperature (22° C.) and are terminated with 80 mM 2,2′,2″,2″′-(ethane-1,2-diyldinitrilo)tetraacetic acid (EDTA). Product is detected using the Caliper mobility shift detection method where product and substrate are electrophoretically separated and measured.
# EGFR T790M L858R = target: T3, EGFR T790M L858R (Homo sapiens, UniProt P00533, L858R/T790M); assay: EGFR T790M L858R biochemical assay (Caliper mobility shift); conditions: 5 μM ATP; apparent Ki (Morrison fit) converted by Cheng-Prusoff, Km of ATP 1.3 μM
# T3 construct: purchased Life Technologies PV4879
# Method in brief: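 Reactions run 30 minutes at room temperature (22 °C), stopped with 80 mM EDTA. Phosphorylated product and substrate separated electrophoretically and quantified by Caliper mobility shift.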
# [2] = system: H1975 (EGFR T790M/L858R) cell proliferation; assay: H1975 proliferation assay (Cell Titer-Glo); type: cell-based; conditions: Homo sapiens, NCI-H1975, 72 h, NCI-H1975 cells, 72 hour incubation, read-out: H1975 antiproliferative EC50
# Method: H1975 Proliferation Assays
# All cell culture reagents were purchased from Invitrogen/Gibco. Cells are cultured at 37° C. at 5% CO2 and split as recommended by ATCC.
# T1 sequence (P00533 25-1210 T790M/L858R): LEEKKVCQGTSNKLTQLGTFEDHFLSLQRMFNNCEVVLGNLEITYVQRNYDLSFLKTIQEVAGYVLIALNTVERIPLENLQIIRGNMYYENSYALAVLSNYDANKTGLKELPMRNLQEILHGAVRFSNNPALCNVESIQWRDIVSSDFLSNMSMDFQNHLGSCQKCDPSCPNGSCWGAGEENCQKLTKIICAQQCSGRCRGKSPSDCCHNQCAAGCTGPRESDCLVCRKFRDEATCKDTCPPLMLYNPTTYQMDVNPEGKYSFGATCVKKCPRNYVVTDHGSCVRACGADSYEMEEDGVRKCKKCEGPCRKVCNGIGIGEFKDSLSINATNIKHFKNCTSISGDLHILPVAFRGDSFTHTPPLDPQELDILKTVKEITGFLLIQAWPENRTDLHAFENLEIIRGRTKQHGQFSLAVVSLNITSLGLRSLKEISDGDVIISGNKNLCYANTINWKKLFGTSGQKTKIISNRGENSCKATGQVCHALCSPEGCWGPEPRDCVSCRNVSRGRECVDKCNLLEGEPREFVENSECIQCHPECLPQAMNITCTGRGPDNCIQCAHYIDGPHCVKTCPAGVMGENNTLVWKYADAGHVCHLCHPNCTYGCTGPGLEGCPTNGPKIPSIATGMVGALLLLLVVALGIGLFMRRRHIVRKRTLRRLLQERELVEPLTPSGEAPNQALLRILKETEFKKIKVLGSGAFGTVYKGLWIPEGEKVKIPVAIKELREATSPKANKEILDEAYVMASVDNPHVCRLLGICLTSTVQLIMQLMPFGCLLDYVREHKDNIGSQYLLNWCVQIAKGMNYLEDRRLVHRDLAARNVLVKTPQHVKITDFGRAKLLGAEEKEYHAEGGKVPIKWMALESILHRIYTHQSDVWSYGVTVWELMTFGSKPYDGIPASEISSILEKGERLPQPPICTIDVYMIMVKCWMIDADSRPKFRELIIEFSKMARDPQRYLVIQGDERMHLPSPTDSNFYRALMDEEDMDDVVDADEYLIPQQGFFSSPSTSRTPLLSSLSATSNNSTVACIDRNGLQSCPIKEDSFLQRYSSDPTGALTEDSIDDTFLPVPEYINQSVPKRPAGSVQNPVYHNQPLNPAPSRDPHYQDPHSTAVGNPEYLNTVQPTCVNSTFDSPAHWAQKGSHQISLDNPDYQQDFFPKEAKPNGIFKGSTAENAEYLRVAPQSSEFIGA
# T3 sequence (P00533 25-1210 T790M/L858R): as above
# T2 sequence (P00533 with tags, fused parts or gaps DEL746-750/T790M limits assumed): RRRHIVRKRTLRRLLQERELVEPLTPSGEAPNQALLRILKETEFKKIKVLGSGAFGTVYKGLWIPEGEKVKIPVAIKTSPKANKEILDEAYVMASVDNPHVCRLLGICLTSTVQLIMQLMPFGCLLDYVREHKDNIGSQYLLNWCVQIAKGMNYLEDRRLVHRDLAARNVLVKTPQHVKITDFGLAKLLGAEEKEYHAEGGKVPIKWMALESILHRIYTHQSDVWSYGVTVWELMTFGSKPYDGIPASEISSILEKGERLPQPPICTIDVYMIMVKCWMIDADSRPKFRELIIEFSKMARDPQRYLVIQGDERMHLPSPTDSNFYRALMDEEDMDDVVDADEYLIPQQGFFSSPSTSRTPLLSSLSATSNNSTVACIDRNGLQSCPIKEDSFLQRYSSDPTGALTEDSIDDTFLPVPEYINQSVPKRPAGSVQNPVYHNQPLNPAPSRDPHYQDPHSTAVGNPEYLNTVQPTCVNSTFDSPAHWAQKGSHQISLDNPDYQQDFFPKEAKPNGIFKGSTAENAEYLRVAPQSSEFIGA
SMILES,pEC50 [1],pKi (EGFR del746-750 T790M),pKi (EGFR T790M L858R),pEC50 [2]
"CC(C)n1nc(N2CCS(=N)(=O)CC2)c2cnc(Nc3ccnc(-c4cnn(S(=O)(=O)C5CC5)c4)n3)cc21 [Example 111, 4-(6-((2-(1-(Cyclopropylsulfonyl)-1H-pyrazol-4-yl)pyrimidin-4-yl)amino)-1-isopropyl-1H-pyrazolo[4,3-c]pyridin-3-yl)-1-iminothiomorpholine 1-oxide]",6.25,9.00,8.77,6.02
"CC(C)n1nc(N2CC(C)(CO)C2)c2cnc(Nc3ccnc(-c4cnn(S(=O)(=O)C5CC5)c4)n3)cc21 [Example 122, (1-(6-(2-(1-(Cyclopropylsulfonyl)-1H-pyrazol-4-yl)pyrimidin-4-ylamino)-1-isopropyl-1H-pyrazolo[4,3-c]pyridin-3-yl)-3-methylazetidin-3-yl)methanol]",7.06,9.00,8.92,6.21
"CC(C)n1nc(N2CCC3(COC3)C2)c2cnc(Nc3ccnc(-c4cnn(S(=O)(=O)C5CC5)c4)n3)cc21 [Example 120, N-(2-(1-(Cyclopropylsulfonyl)-1H-pyrazol-4-yl)pyrimidin-4-yl)-1-isopropyl-3-(2-oxa-6-azaspiro[3.4]octan-6-yl)-1H-pyrazolo[4,3-c]pyridin-6-amine]",7.48,8.89,8.85,6.37
"CC(C)n1nc(C#N)c2cnc(Nc3ccnc(-c4cnn(S(=O)(=O)C5CC5)c4)n3)cc21 [Example 93, 6-(2-(1-(Cyclopropylsulfonyl)-1H-pyrazol-4-yl)pyrimidin-4-ylamino)-1-isopropyl-1H-pyrazolo[4,3-c]pyridine-3-carbonitrile]",–,7.18,6.96,–
"CCC(C)n1nc(N2CC[C@H](O)C2=O)c2cnc(Nc3ccnc(N4CC[C@@H](O)[C@@H](F)C4)n3)cc21 (stereo partly drawn) [Example 201, (3S)-1-(1-(sec-Butyl)-6-((2-((3S,4R)-3-fluoro-4-hydroxypiperidin-1-yl)pyrimidin-4-yl)amino)-1H-pyrazolo[4,3-c]pyridin-3-yl)-3-hydroxypyrrolidin-2-one]",–,7.85,8.24,< 5.00
"CC1COCC(C)N1c1nn(C(C)C)c2cc(Nc3ccnc(-c4cnn(S(=O)(=O)C5CC5)c4)n3)ncc12 (stereo not shown) [Example 180, N-(2-(1-(Cyclopropylsulfonyl)-1H-pyrazol-4-yl)pyrimidin-4-yl)-3-(3,5-dimethylmorpholino)-1-isopropyl-1H-pyrazolo[4,3-c]pyridin-6-amine]",–,6.70,6.52,< 5.00
"CC(C)n1nc(N2CCC(C(N)=O)C2)c2cnc(Nc3ccnc(-c4cnn(S(=O)(=O)C5CC5)c4)n3)cc21 (stereo not shown) [Example 60, 1-(6-(2-(1-(cyclopropylsulfonyl)-1H-pyrazol-4-yl)pyrimidin-4-ylamino)-1-isopropyl-1H-pyrazolo[4,3-c]pyridin-3-yl)pyrrolidine-3-carboxamide]",7.55,9.30,–,6.22
"CCC(C)n1nc(N2CC[C@@H](O)C2)c2cnc(Nc3ccnc(N4CCC5(CC4)CNC(=O)CO5)n3)cc21 (single isomer, unassigned) [Example 207, 9-(4-((1-((S*)-sec-Butyl)-3-((R)-3-hydroxypyrrolidin-1-yl)-1H-pyrazolo[4,3-c]pyridin-6-yl)amino)pyrimidin-2-yl)-1-oxa-4,9-diazaspiro[5.5]undecan-3-one]",–,5.97,6.33,–
"CC1CCC(C)N1c1nn(C(C)C)c2cc(Nc3ccnc(-c4cnn(S(=O)(=O)C5CC5)c4)n3)ncc12 (stereo not shown) [Example 91, N-(2-(1-(Cyclopropylsulfonyl)-1H-pyrazol-4-yl)pyrimidin-4-yl)-3-(2,5-dimethylpyrrolidin-1-yl)-1-isopropyl-1H-pyrazolo[4,3-c]pyridin-6-amine]",–,7.69,7.69,–

# The next lines start with the values.
pEC50 [1],pKi (EGFR del746-750 T790M),pKi (EGFR T790M L858R),pEC50 [2],SMILES
7.09,8.01,8.68,6.41,"COC1CCN(c2nccc(Nc3cc4c(cn3)c(N3CC5(COC5)C3)nn4C(C)C)n2)CC1 [Example 2, 1-Isopropyl-N-(2-(4-methoxypiperdin-1-yl)pyrimidin-4-yl)-3-(2-oxa-6-azaspiro[3.3]heptan-6-yl)-1H-pyrazolo[4,3-c]pyridine-6-amine]"
7.52,8.89,8.89,6.30,"CC(C)n1nc(N2CCCC2)c2cnc(Nc3ccnc(N4CCC(O)C(C)(C)C4)n3)cc21 (stereo not shown) [Example 8, 1-(4-((1-Isopropyl-3-(pyrrolidin-1-yl)-1H-pyrazolo[4,3-c]pyridin-6-yl)amino)pyrimidin-2-yl)-3,3-dimethylpiperidin-4-ol]"
7.20,8.34,8.68,6.20,"CC[C@H](C)n1nc(N2CC3(COC3)C2)c2cnc(Nc3ccnc(N4CC[C@@](C)(O)[C@@H](F)C4)n3)cc21 (single isomer, unassigned) [Example 66, (3R*,4S*)-1-{4-[1-((S)-sec-Butyl)-3-(2-oxa-6-azaspiro[3.3]hept-6-yl)-1H-pyrazolo[4,3-c]pyridin-6-ylamino]pyrimidin-2-yl}-3-fluoro-4-methylpiperidin-4-ol]"
6.04,7.81,8.21,5.69,"CC1CNC(=O)N1c1nn(C(C)C)c2cc(Nc3ccnc(N4CC[C@H](O)[C@H](F)C4)n3)ncc12 (relative stereo) [Example 128, 1-(6-(2-(cis-3-Fluoro-4-hydroxypiperidin-1-yl)pyrimidin-4-ylamino)-1-isopropyl-1H-pyrazolo[4,3-c]pyridin-3-yl)-5-methylimidazolidin-2-one]"
6.51,7.81,8.26,5.88,"CC(C)n1nc(N2CC(O)C(F)(F)C2)c2cnc(Nc3ccnc(N4CCC(C)(O)CC4)n3)cc21 (stereo not shown) [Example 85, 1-(4-(3-(3,3-Difluoro-4-hydroxypyrrolidin-1-yl)-1-isopropyl-1H-pyrazolo[4,3-c]pyridin-6-ylamino)pyrimidin-2-yl)-4-methylpiperidin-4-ol]"
7.58,8.55,8.92,6.42,"COC1CCN(c2nccc(Nc3cc4c(cn3)c(N3CCCC3)nn4C(C)C)n2)CC1 [Example 15, 1-Isopropyl-N-(2-(4-methoxypiperidin-1-yl)pyrimidin-4-yl)-3-(pyrrolidin-1-yl)-1H-pyrazolo[4,3-c]pyridin-6-amine]"
6.54,8.21,8.51,6.19,"C[C@@H](n1nc(N2CC[C@@H](O)C2)c2cnc(Nc3ccnc(N4CC[C@](C)(O)[C@H](F)C4)n3)cc21)C(F)(F)F (racemic) [Example 140, (3RS,4SR)-3-Fluoro-1-(4-(3-((R)-3-hydroxypyrrolidin-1-yl)-1-((R*)-1,1,1-trifluoropropan-2-yl)-1H-pyrazolo[4,3-c]pyridin-6-ylamino)pyrimidin-2-yl)-4-methylpiperidin-4-ol]"
–,< 5.54,6.06,–,"CC(C)n1nc(C2(C)CCCO2)c2cnc(Nc3ccnc(N4CCC(C)(O)CC4)n3)cc21 (stereo not shown) [Example 94, 1-(4-(1-Isopropyl-3-(2-methyltetrahydrofuran-2-yl)-1H-pyrazolo[4,3-c]pyridin-6-ylamino)pyrimidin-2-yl)-4-methylpiperidin-4-ol]"
–,7.12,7.67,–,"CC(C)n1nc(N2CCN(C(=O)C(C)(C)O)CC2)c2cnc(Nc3ccnc(N4CCC(C)(O)CC4)n3)cc21 [Example 78, 2-Hydroxy-1-(4-(6-(2-(4-hydroxy-4-methylpiperidin-1-yl)pyrimidin-4-ylamino)-1-isopropyl-1H-pyrazolo[4,3-c]pyridin-3-yl)piperazin-1-yl)-2-methylpropan-1-one]"
–,7.53,7.73,< 5.00,"CC(C)n1nc(NC2CNC(=O)C2)c2cnc(Nc3ccnc(N4CCC(C)(O)CC4)n3)cc21 (stereo not shown) [Example 77, 4-(6-(2-(4-Hydroxy-4-methylpiperidin-1-yl)pyrimidin-4-ylamino)-1-isopropyl-1H-pyrazolo[4,3-c]pyridin-3-ylamino)pyrrolidin-2-one]"
–,6.95,6.84,–,"CC[C@H](C)n1nc(N2CC[C@@H](O)C2)c2cnc(Nc3ccnc(N4CC[C@](C)(C(N)=O)C4)n3)cc21 (relative stereo) [Example 209, (S*)-1-(4-((1-((S*)-sec-Butyl)-3-((R)-3-hydroxypyrrolidin-1-yl)-1H-pyrazolo[4,3-c]pyridin-6-yl)amino)pyrimidin-2-yl)-3-methylpyrrolidine-3-carboxamide]"
